Test results taken from patent US8703483B2, “Reagents and methods for using human embryonic stem cells to evaluate toxicity of pharmaceutical compounds and other chemicals” (Wisconsin Alumni Research Foundation, priority 2006, dated 2014).

System: human embryonic stem cells
Assay: Metabolite profiling (LC/ESI-TOF mass spectrometry) of extracellular media of hESCs treated with alcohol
Type: cell-based
Excerpt: Binned masses were annotated in silico by querying the neutral masses in several different databases. These databases included Metlin, Biological Magnetic Resonance Data Bank (BMRB), NIST Chemistry WebBook, and the Human Metabolome Database. A mass was considered identified when its neutral mass was within 10 ppm of a known compound annotated in one of the databases listed above.

CCO [ETOH]
Fold: Unknown, mass 646.7084, RT 5.903429 (ETOH 0.1, 4 D): −1.271 fold
Fold: Unknown, mass 661.3846, RT 26.7452 (ETOH 0.1, 4 D): 1.295 fold
Fold: Unknown, mass 693.4124, RT 31.11764 (ETOH 0.1, 4 D): 2.318 fold
Fold: Unknown, mass 699.9225, RT 33.70266 (ETOH 0.1, 4 D): 1.719 fold
Fold: Unknown, mass 707.3928, RT 34.62439 (ETOH 0.1, 4 D): 2.137 fold
Fold: Unknown, mass 708.9387, RT 33.73428 (ETOH 0.1, 4 D): 2.16 fold
Fold: Unknown, mass 730.4494, RT 33.89008 (ETOH 0.1, 4 D): 2.614 fold
Fold: Unknown, mass 731.0954, RT 47.76987 (ETOH 0.1, 4 D): −2.776 fold
Fold: Unknown, mass 732.007, RT 5.918027 (ETOH 0.1, 4 D): 1.795 fold
Fold: Unknown, mass 751.4193, RT 35.028 (ETOH 0.1, 4 D): 1.87 fold
Fold: Unknown, mass 752.4629, RT 34.12668 (ETOH 0.1, 4 D): 2.067 fold
Fold: Unknown, mass 774.4767, RT 34.33545 (ETOH 0.1, 4 D): 2.104 fold
Fold: Unknown, mass 774.5055, RT 89.29926 (ETOH 0.1, 4 D): −2.401 fold
Fold: Unknown, mass 780.241, RT 5.886782 (ETOH 0.1, 4 D): −1.314 fold
Fold: Unknown, mass 796.4891, RT 34.52749 (ETOH 0.1, 4 D): 1.927 fold
Fold: Unknown, mass 796.9917, RT 34.60124 (ETOH 0.1, 4 D): 1.818 fold
Fold: Unknown, mass 820.8181, RT 4.613879 (ETOH 0.1, 4 D): −1.47 fold
Fold: Unknown, mass 888.8041, RT 5.259716 (ETOH 0.1, 4 D): −1.458 fold
Fold: Unknown, mass 921.0025, RT 5.399211 (ETOH 0.1, 4 D): 1.678 fold
Fold: Unknown, mass 1008.072, RT 3.705141 (ETOH 0.1, 4 D): 1.304 fold
Fold: Unknown, mass 1038.786, RT 5.177162 (ETOH 0.1, 4 D): 1.678 fold
Fold: glucuronide, mass 471.1928, RT 30.37291 (ETOH 0.1, 4 D): 2.001 fold
Fold: 3,4-Dihydroxybutyric acid, mass 129.0452, RT 16.73904 (ETOH 0.1, 24 H): 1.502 fold
Fold: 3-Methylindole, mass 131.0746, RT 22.22892 (ETOH 0.1, 24 H): −1.857 fold
Fold: (+/−)-2-(4′-Isobutylphenyl)propionitrile, mass 187.1343, RT 22.17997 (ETOH 0.1, 24 H): 1.488 fold
Fold: GABA analogue, mass 171.1244, RT 26.70635 (ETOH 0.1, 24 H): 2.376 fold
Fold: Malonylcarnitine, mass 229.0949, RT 24.52067 (ETOH 0.1, 24 H): −2.33 fold
Fold: Oxidized glutathione (Glutathione disulfide; GSSG; Oxiglutatione), mass 612.1509, RT 8.056862 (ETOH 0.1, 24 H): −1.474 fold
Fold: Unknown, mass 130.9541, RT 88.64043 (ETOH 0.1, 24 H): 1.632 fold
Fold: Unknown, mass 148.0052, RT 3.958833 (ETOH 0.1, 24 H): −1.948 fold
Fold: Unknown, mass 266.1613, RT 64.66999 (ETOH 0.1, 24 H): −1.519 fold
Fold: Unknown, mass 271.9364, RT 4.86619 (ETOH 0.1, 24 H): 2.629 fold
Fold: Unknown, mass 272.16, RT 43.99398 (ETOH 0.1, 24 H): 1.93 fold
Fold: Unknown, mass 285.2285, RT 63.00428 (ETOH 0.1, 24 H): 4.003 fold
Fold: Unknown, mass 294.0957, RT 6.160071 (ETOH 0.1, 24 H): 1.269 fold
Fold: Unknown, mass 296.2308, RT 71.55535 (ETOH 0.1, 24 H): 3.545 fold
Fold: Unknown, mass 300.1656, RT 17.18696 (ETOH 0.1, 24 H): 1.549 fold
Fold: Unknown, mass 337.2012, RT 8.542672 (ETOH 0.1, 24 H): 1.402 fold
Fold: Unknown, mass 362.2787, RT 83.72506 (ETOH 0.1, 24 H): 2.82 fold
Fold: Unknown, mass 379.1771, RT 20.76168 (ETOH 0.1, 24 H): −1.723 fold
Fold: Unknown, mass 387.0812, RT 19.97914 (ETOH 0.1, 24 H): 1.739 fold
Fold: Unknown, mass 388.1815, RT 17.53242 (ETOH 0.1, 24 H): −1.449 fold
Fold: Unknown, mass 393.1889, RT 15.90129 (ETOH 0.1, 24 H): −1.431 fold
Fold: Unknown, mass 396.1687, RT 6.259963 (ETOH 0.1, 24 H): 1.718 fold
Fold: Unknown, mass 437.2042, RT 32.18393 (ETOH 0.1, 24 H): 24.53 fold
Fold: Unknown, mass 462.2217, RT 22.95657 (ETOH 0.1, 24 H): −1.986 fold
Fold: Unknown, mass 464.225, RT 25.3287 (ETOH 0.1, 24 H): −1.631 fold
Fold: Unknown, mass 482.3062, RT 72.7735 (ETOH 0.1, 24 H): −1.959 fold
Fold: Unknown, mass 485.2069, RT 6.676207 (ETOH 0.1, 24 H): −2.014 fold
Fold: Unknown, mass 521.9924, RT 34.35986 (ETOH 0.1, 24 H): −1.446 fold
Fold: Unknown, mass 577.2825, RT 16.90923 (ETOH 0.1, 24 H): 1.728 fold
Fold: Unknown, mass 677.9101, RT 33.48766 (ETOH 0.1, 24 H): −2.221 fold
Fold: Unknown, mass 695.4286, RT 28.2045 (ETOH 0.1, 24 H): −32.9384 fold
Fold: Unknown, mass 707.4296, RT 56.18269 (ETOH 0.1, 24 H): 1.49 fold
Fold: Unknown, mass 711.8344, RT 4.826824 (ETOH 0.1, 24 H): −3.021 fold
Fold: Unknown, mass 765.5211, RT 69.32865 (ETOH 0.1, 24 H): 1.873 fold
Fold: Unknown, mass 909.5934, RT 8.502051 (ETOH 0.1, 24 H): 2.274 fold
Fold: Unknown, mass 913.8074, RT 5.217833 (ETOH 0.1, 24 H): −1.861 fold
Fold: Unknown, mass 994.0917, RT 3.646902 (ETOH 0.1, 24 H): 1.442 fold
Fold: 3,4-Dihydroxybutyric acid, mass 120.0436, RT 3.767232 (ETOH 0.3, 4 D): 1.936 fold
Fold: 3-(2,5-Dimethoxy phenylpropionic acid, mass 210.0922, RT 36.18938) (ETOH 0.3, 4 D): 1.85 fold
Fold: 3-Methylindole, mass 131.0746, RT 22.22892 (ETOH 0.3, 4 D): 2.502 fold
Fold: 5-Ethyl-5-(1-methyl-3-carboxypropyl)barbituric acid, mass 256.1066, RT 18.84552 (ETOH 0.3, 4 D): −2.141 fold
Fold: 5-Methoxytryptophan, mass 234.1253, RT 53.26863 (ETOH 0.3, 4 D): −1.624 fold
Fold: (+)-Eudesmin, mass 386.1724, RT 51.65871 (ETOH 0.3, 4 D): 4.851 fold
Fold: Amino-4methylthiobutyric acid, mass 149.0511, RT 7.479235 (ETOH 0.3, 4 D): −1.305 fold
Fold: Benzenemethanol, 2-(2-aminopropoxy)-3-methyl- / a-[1-(ethylamino)ethyl]-p-hydroxy-Benzyl alcohol, mass 195.124, RT 31.19917 (ETOH 0.3, 4 D): −1.86 fold
Fold: Homogentisic acid / Vanillic acid, mass 168.0434, RT 19.18355 (ETOH 0.3, 4 D): 1.282 fold
Fold: L-Histidine / 4-propionic acid, mass 155.0681, RT 5.559732 (ETOH 0.3, 4 D): 1.638 fold
Fold: Malonylcarnitine, mass 229.0949, RT 24.52067 (ETOH 0.3, 4 D): −1.74 fold
Fold: N-Methyl-2-pyrrolidinone, mass 99.0689, RT 15.48433 (ETOH 0.3, 4 D): 1.338 fold
Fold: Pantothenol / dimethylbutanamide;, mass 205.1304, RT 6.747279 (ETOH 0.3, 4 D): −1.339 fold
Fold: Phenanthrene-9,10-oxide / 9-Hydroxyphenanthrene; 9-Phenanthrol, mass 194.073, RT 5.935143 (ETOH 0.3, 4 D): −1.4 fold
Fold: Thiosulfate, mass 111.9839, RT 4.032816 (ETOH 0.3, 4 D): −8.676 fold
Fold: Unknown, mass 120.2112, RT 13.40565 (ETOH 0.3, 4 D): 3.9 fold
Fold: Unknown, mass 131.076, RT 14.35336 (ETOH 0.3, 4 D): 4.05 fold
Fold: Unknown, mass 162.0662, RT 44.88033 (ETOH 0.3, 4 D): 1.799 fold
Fold: Unknown, mass 201.1709, RT 19.48063 (ETOH 0.3, 4 D): −2.979 fold
Fold: Unknown, mass 218.0762, RT 6.62669 (ETOH 0.3, 4 D): −1.771 fold
Fold: Unknown, mass 229.1457, RT 55.50731 (ETOH 0.3, 4 D): −1.533 fold
Fold: Unknown, mass 243.11, RT 27.39631 (ETOH 0.3, 4 D): −1.495 fold
Fold: Unknown, mass 247.1049, RT 6.626769 (ETOH 0.3, 4 D): −4.476 fold
Fold: Unknown, mass 247.1408, RT 9.0276 (ETOH 0.3, 4 D): −2.751 fold
Fold: Unknown, mass 267.2543, RT 40.75868 (ETOH 0.3, 4 D): −1.6481 fold
